Legend:
B. subtilis 168 = assay: fitness (endpoint OD595 vs no drug) (fraction); higher = more growth
Method in brief: (§1)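 Bacterial fitness was scored as optical density at the stationary-phase transition relative to the robust mean of no-drug control wells. Scores are capped at 1. The growth data were OD595 readings every 30 min for 14 h at 37 °C, background-subtracted against the first reading, from 384-well plates inoculated at OD595 0.01 in TSB, LB Lennox or CY.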

S. pneumoniae D39V = assay: as above
Method in brief: as §1
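Further: OD595 on entry to stationary phase over no-drug wells; at most 1.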

CN(C)[C@@H]1C(O)=C(C(N)=O)C(=O)[C@@]2(O)C(O)=C3C(=O)c4c(O)ccc(Cl)c4[C@@](C)(O)[C@H]3C[C@@H]12 [Chlortetracycline] + CC(C1CCC(C(O1)OC2C(CC(C(C2O)OC3C(C(C(CO3)(C)O)NC)O)N)N)N)NC [Gentamicin]
main component drawn
Conditions | fitness
B. subtilis 168, first compound 0.0475 µg/mL, partner 0.0625 µg/mL | 0.917
B. subtilis 168, first compound 0.095 µg/mL, partner 0.0625 µg/mL | 0.778
B. subtilis 168, first compound 0.19 µg/mL, partner 0.25 µg/mL | 0.0795
S. pneumoniae D39V, first compound 0.012 µg/mL, partner 2 µg/mL | 0.8
S. pneumoniae D39V, first compound 0.012 µg/mL, partner 4 µg/mL | 0.752
S. pneumoniae D39V, first compound 0.012 µg/mL, partner 8 µg/mL | 0.706
S. pneumoniae D39V, first compound 0.024 µg/mL, partner 2 µg/mL | 0.393
S. pneumoniae D39V, first compound 0.024 µg/mL, partner 4 µg/mL | 0.392
S. pneumoniae D39V, first compound 0.024 µg/mL, partner 8 µg/mL | 0.389
S. pneumoniae D39V, first compound 0.048 µg/mL, partner 2 µg/mL | 0.255
S. pneumoniae D39V, first compound 0.048 µg/mL, partner 4 µg/mL | 0.184
S. pneumoniae D39V, first compound 0.048 µg/mL, partner 8 µg/mL | 0.187
S. pneumoniae D39V, first compound 0.375 µg/mL, partner 2 µg/mL | 0.0667
S. pneumoniae D39V, first compound 0.375 µg/mL, partner 4 µg/mL | 0.0598
S. pneumoniae D39V, first compound 0.375 µg/mL, partner 8 µg/mL | 0.0694
S. pneumoniae D39V, first compound 0.75 µg/mL, partner 2 µg/mL | 0.0603
S. pneumoniae D39V, first compound 0.75 µg/mL, partner 4 µg/mL | 0.0825
S. pneumoniae D39V, first compound 0.75 µg/mL, partner 8 µg/mL | 0.0967
S. pneumoniae D39V, first compound 1.5 µg/mL, partner 2 µg/mL | 0.0704
S. pneumoniae D39V, first compound 1.5 µg/mL, partner 4 µg/mL | 0.0878
S. pneumoniae D39V, first compound 1.5 µg/mL, partner 8 µg/mL | 0.0614

CN(C)[C@@H]1C(O)=C(C(N)=O)C(=O)[C@@]2(O)C(O)=C3C(=O)c4c(O)ccc(Cl)c4[C@@](C)(O)[C@H]3C[C@@H]12 [Chlortetracycline] + CCC(C)C1C(=O)NC(=C)C(=O)NC(C(=O)NC(CSCC(C(=O)N1)NC(=O)/C(=C/C)/NC(=O)C(C(C)CC)N)C(=O)NC2C(SCC(NC(=O)CNC(=O)C3CCCN3C2=O)C(=O)NC(CCCCN)C(=O)NC4C(SCC(NC(=O)CNC(=O)C(NC(=O)C(NC(=O)C(NC(=O)CNC4=O)C)CC(C)C)CCSC)C(=O)NC(CC(=O)N)C(=O)NC(CCSC)C(=O)NC(CCCCN)C(=O)NC5C(SCC6C(=O)NC(C(=O)NC(CSC(C(C(=O)N6)NC(=O)C(NC5=O)C)C)C(=O)NC(CO)C(=O)NC(C(C)CC)C(=O)NC(CC7=CN=CN7)C(=O)NC(C(C)C)C(=O)NC(=C)C(=O)NC(CCCCN)C(=O)O)CC8=CN=CN8)C)C)C)CC(C)C [Nisin]
main component drawn
Conditions | fitness
B. subtilis 168, first compound 0.0475 µg/mL, partner 0.5 µg/mL | 0.902
B. subtilis 168, first compound 0.0475 µg/mL, partner 1 µg/mL | 0.849
B. subtilis 168, first compound 0.0475 µg/mL, partner 2 µg/mL | 0.452
B. subtilis 168, first compound 0.095 µg/mL, partner 0.5 µg/mL | 0.794
B. subtilis 168, first compound 0.095 µg/mL, partner 1 µg/mL | 0.733
B. subtilis 168, first compound 0.095 µg/mL, partner 2 µg/mL | 0.387
B. subtilis 168, first compound 0.19 µg/mL, partner 0.5 µg/mL | 0.605
B. subtilis 168, first compound 0.19 µg/mL, partner 1 µg/mL | 0.454
B. subtilis 168, first compound 0.19 µg/mL, partner 2 µg/mL | 0.116
S. pneumoniae D39V, first compound 0.012 µg/mL, partner 0.4275 µg/mL | 0.973
S. pneumoniae D39V, first compound 0.012 µg/mL, partner 0.855 µg/mL | 0.804
S. pneumoniae D39V, first compound 0.012 µg/mL, partner 1.71 µg/mL | 0.0763
S. pneumoniae D39V, first compound 0.024 µg/mL, partner 0.4275 µg/mL | 0.909
S. pneumoniae D39V, first compound 0.024 µg/mL, partner 0.855 µg/mL | 0.526
S. pneumoniae D39V, first compound 0.024 µg/mL, partner 1.71 µg/mL | 0.0832
S. pneumoniae D39V, first compound 0.048 µg/mL, partner 0.4275 µg/mL | 0.766
S. pneumoniae D39V, first compound 0.048 µg/mL, partner 1.71 µg/mL | 0.0976
S. pneumoniae D39V, first compound 0.375 µg/mL, partner 1.6 µg/mL | 0.014
S. pneumoniae D39V, first compound 0.375 µg/mL, partner 3.2 µg/mL | 0.0066
S. pneumoniae D39V, first compound 0.375 µg/mL, partner 6.4 µg/mL | 0.0151
S. pneumoniae D39V, first compound 0.75 µg/mL, partner 1.6 µg/mL | 0.0251
S. pneumoniae D39V, first compound 0.75 µg/mL, partner 3.2 µg/mL | 0.0392
S. pneumoniae D39V, first compound 0.75 µg/mL, partner 6.4 µg/mL | 0.0332
S. pneumoniae D39V, first compound 1.5 µg/mL, partner 1.6 µg/mL | 0.0279
S. pneumoniae D39V, first compound 1.5 µg/mL, partner 3.2 µg/mL | 0.0271
S. pneumoniae D39V, first compound 1.5 µg/mL, partner 6.4 µg/mL | 0.064

fitness, B. subtilis 168, one replicate, main component drawn
Conditions | partner 1.25 µg/mL | partner 1.6 µg/mL | partner 2.5 µg/mL | partner 3.2 µg/mL | partner 4 µg/mL | partner 5 µg/mL | partner 6.4 µg/mL | partner 8 µg/mL | partner 16 µg/mL
first compound 0.0475 µg/mL | 0.902 | 0.609 | 0.642 | 0.0268 | 0.0247 | 0.0756 | 0.0534 | 0.006 | 0
first compound 0.095 µg/mL | 0.805 | 0.49 | 0.607 | 0.0306 | 0.0278 | 0.0684 | 0.0417 | 0.0191 | 0.0123
first compound 0.19 µg/mL | 0.686 | 0.0405 | 0.338 | 0.0435 | 0.0329 | 0.0442 | 0.0404 | 0.0227 | 0.0213

CN(C)[C@@H]1C(O)=C(C(N)=O)C(=O)[C@@]2(O)C(O)=C3C(=O)c4c(O)ccc(Cl)c4[C@@](C)(O)[C@H]3C[C@@H]12 [Chlortetracycline] + C[C@H]1c2cccc(O)c2C(=O)C2=C(O)[C@]3(O)C(=O)C(C(N)=O)=C(O)[C@@H](N(C)C)[C@@H]3[C@@H](O)[C@@H]21 [Doxycycline]
Conditions | fitness
B. subtilis 168, first compound 0.0475 µg/mL, partner 0.02 µg/mL | 0.858
B. subtilis 168, first compound 0.0475 µg/mL, partner 0.04 µg/mL | 0.658
B. subtilis 168, first compound 0.095 µg/mL, partner 0.02 µg/mL | 0.735
B. subtilis 168, first compound 0.095 µg/mL, partner 0.04 µg/mL | 0.553
B. subtilis 168, first compound 0.19 µg/mL, partner 0.08 µg/mL | 0.0672
S. pneumoniae D39V, first compound 0.012 µg/mL, partner 0.0155 µg/mL | 0.921
S. pneumoniae D39V, first compound 0.024 µg/mL, partner 0.0155 µg/mL | 0.88
S. pneumoniae D39V, first compound 0.048 µg/mL, partner 0.0155 µg/mL | 0.803
S. pneumoniae D39V, first compound 0.375 µg/mL, partner 0.0155 µg/mL | 0.0318
S. pneumoniae D39V, first compound 0.375 µg/mL, partner 0.031 µg/mL | 0.0187
S. pneumoniae D39V, first compound 0.375 µg/mL, partner 0.062 µg/mL | 0.0418
S. pneumoniae D39V, first compound 0.75 µg/mL, partner 0.0155 µg/mL | 0.0248
S. pneumoniae D39V, first compound 0.75 µg/mL, partner 0.031 µg/mL | 0.0352
S. pneumoniae D39V, first compound 0.75 µg/mL, partner 0.062 µg/mL | 0.0311
S. pneumoniae D39V, first compound 1.5 µg/mL, partner 0.0155 µg/mL | 0.0258
S. pneumoniae D39V, first compound 1.5 µg/mL, partner 0.031 µg/mL | 0.067
S. pneumoniae D39V, first compound 1.5 µg/mL, partner 0.062 µg/mL | 0.047

fitness, S. pneumoniae D39V, one replicate
Conditions | partner 0.003875 µg/mL | partner 0.00775 µg/mL | partner 0.031 µg/mL | partner 0.062 µg/mL
first compound 0.012 µg/mL | 0.909 | 0.91 | 0.8 | 0.707
first compound 0.024 µg/mL | 0.834 | 0.808 | 0.821 | 0.774
first compound 0.048 µg/mL | 0.774 | 0.809 | 0.745 | 0.614

O=C(O)c1cn(C2CC2)c2cc(N3CCNCC3)c(F)cc2c1=O [Ciprofloxacin] + CN(C)[C@@H]1C(O)=C(C(N)=O)C(=O)[C@@]2(O)C(O)=C3C(=O)c4c(O)ccc(Cl)c4[C@@](C)(O)[C@H]3C[C@@H]12 [Chlortetracycline]
Conditions | fitness
B. subtilis 168, first compound 0.0098 µg/mL, partner 0.0475 µg/mL | 0.886
B. subtilis 168, first compound 0.0098 µg/mL, partner 0.095 µg/mL | 0.82
B. subtilis 168, first compound 0.0098 µg/mL, partner 0.19 µg/mL | 0.658
B. subtilis 168, first compound 0.0195 µg/mL, partner 0.0475 µg/mL | 0.776
B. subtilis 168, first compound 0.0195 µg/mL, partner 0.095 µg/mL | 0.692
B. subtilis 168, first compound 0.0195 µg/mL, partner 0.19 µg/mL | 0.582
B. subtilis 168, first compound 0.039 µg/mL, partner 0.19 µg/mL | 0.307
S. pneumoniae D39V, first compound 0.125 µg/mL, partner 0.012 µg/mL | 0.867
S. pneumoniae D39V, first compound 0.125 µg/mL, partner 0.024 µg/mL | 0.748
S. pneumoniae D39V, first compound 0.125 µg/mL, partner 0.048 µg/mL | 0.35
S. pneumoniae D39V, first compound 0.125 µg/mL, partner 0.375 µg/mL | 0.0283
S. pneumoniae D39V, first compound 0.125 µg/mL, partner 0.75 µg/mL | 0.038
S. pneumoniae D39V, first compound 0.125 µg/mL, partner 1.5 µg/mL | 0.0287
S. pneumoniae D39V, first compound 0.25 µg/mL, partner 0.375 µg/mL | 0.0322
S. pneumoniae D39V, first compound 0.25 µg/mL, partner 0.75 µg/mL | 0.0502
S. pneumoniae D39V, first compound 0.25 µg/mL, partner 1.5 µg/mL | 0.0591
S. pneumoniae D39V, first compound 0.5 µg/mL, partner 0.048 µg/mL | 0.323
S. pneumoniae D39V, first compound 0.5 µg/mL, partner 0.75 µg/mL | 0.0332
S. pneumoniae D39V, first compound 0.5 µg/mL, partner 1.5 µg/mL | 0.0454

S. pneumoniae D39V, first compound 0.25 µg/mL, one replicate
Conditions | fitness
partner 0.012 µg/mL | 0.74
partner 0.024 µg/mL | 0.447
partner 0.048 µg/mL | 0.237

Reference: the supplement of paper PMC10627819
